Key:
FL-geph = test: µSPOT peptide microarray binding assay with full-length geph
native geph = test: µSPOT peptide microarray binding assay with native geph from mouse brain lysate
gephE = test: µSPOT peptide microarray binding assay with recombinant gephE
[1] = µSPOT full positional scan of GlyRβ 15-mer DLRSNDFSIVGSLPR, intensity normalised to wild-type sequence (= 1)
[2] = µSPOT full positional scan of GlyRβ 15-mer DLRSNDFSIVGSLPR, native geph, intensity normalised to wild-type sequence (= 1)
[3] = µSPOT peptide microarray, GlyRβ full positional scan, intensity normalised to wild-type sequence DLRSNDFSIVGSLPR (=1)
[4] = µSPOT peptide microarray, GlyRβ full positional scan, native geph from mouse brain lysate, intensity normalised to wild-type sequence DLRSNDFSIVGSLPR (=1)
[5] = µSPOT peptide microarray, GlyRβ full positional scan, recombinant gephE, intensity normalised to wild-type sequence DLRSNDFSIVGSLPR (=1)

Sequence | Fl-geph Binding Intensity [norm.] (FL-geph; [1]) | Native geph Binding Intensity [norm.] (native geph; [2]) | gephE Binding Intensity [norm.] (gephE; [1]) | Fl-geph Binding Intensity [norm.] (FL-geph; [3]) | Native geph Binding Intensity [norm.] (native geph; [4]) | gephE Binding Intensity [norm.] (gephE; [5])
DLRSNDFSIVTSLPR [GlyRβ_Full_Positional_Scan_216, GlyR β 414-428 variant G424T] | 0.47 | 0.28 | 0.49 | – | – | –
DLRSNDFSIVWSLPR [GlyRβ_Full_Positional_Scan_208, GlyR β 414-428 variant G424W] | – | – | – | 0.35 | 0.16 | 0.32
DLRSNDFSIYGSLPR [GlyRβ_Full_Positional_Scan_189, GlyR β 414-428 variant V423Y] | – | – | – | 0.84 | 0.34 | 0.79
DLRSNDFSKVGSLPR [GlyRβ_Full_Positional_Scan_174, GlyR β 414-428 variant I422K] | – | – | – | 0.58 | 0.13 | 0.47
DLRSNDFSNVGSLPR [GlyRβ_Full_Positional_Scan_179, GlyR β 414-428 variant I422N] | – | – | – | 0.57 | 0.42 | 0.6
DLRSNDFSRVGSLPR [GlyRβ_Full_Positional_Scan_172, GlyR β 414-428 variant I422R] | – | – | – | 0.62 | 0.16 | 0.57
DLRSNDFSSVGSLPR [GlyRβ_Full_Positional_Scan_175, GlyR β 414-428 variant I422S] | – | – | – | 0.87 | 0.27 | 0.52
DLRSNDFSTVGSLPR [GlyRβ_Full_Positional_Scan_176, GlyR β 414-428 variant I422T] | – | – | – | 0.95 | 0.31 | 0.53
DLRSNDFSWVGSLPR [GlyRβ_Full_Positional_Scan_168, GlyR β 414-428 variant I422W] | – | – | – | 0.67 | 0.2 | 0.59
DLRSNDFSYVGSLPR [GlyRβ_Full_Positional_Scan_169, GlyR β 414-428 variant I422Y] | – | – | – | 0.84 | 0.48 | 0.69
DLRSNDFWIVGSLPR [GlyRβ_Full_Positional_Scan_148, GlyR β 414-428 variant S421W] | – | – | – | 0.79 | 0.24 | 0.73
DLRSNDFYIVGSLPR [GlyRβ_Full_Positional_Scan_149, GlyR β 414-428 variant S421Y] | – | – | – | 0.85 | 0.27 | 0.7
DLRSNDISIVGSLPR [GlyRβ_Full_Positional_Scan_123, GlyR β 414-428 variant F420I] | – | – | – | 0.66 | 0.46 | 0.57
DLRSNDKSIVGSLPR [GlyRβ_Full_Positional_Scan_134, GlyR β 414-428 variant F420K] | – | – | – | 0.61 | 0.3 | 0.53
DLRSNDPSIVGSLPR [GlyRβ_Full_Positional_Scan_125, GlyR β 414-428 variant F420P] | – | – | – | 0.65 | 0.34 | 0.54
DLRSNDRSIVGSLPR [GlyRβ_Full_Positional_Scan_132, GlyR β 414-428 variant F420R] | – | – | – | 0.77 | 0.41 | 0.63

Results, then the sequence that gave them:

Fl-geph Binding Intensity [norm.] (FL-geph; [1]) | Native geph Binding Intensity [norm.] (native geph; [2]) | gephE Binding Intensity [norm.] (gephE; [1]) | Fl-geph Binding Intensity [norm.] (FL-geph; [3]) | Native geph Binding Intensity [norm.] (native geph; [4]) | gephE Binding Intensity [norm.] (gephE; [5]) | Sequence
0.44 | 0.2 | 0.4 | – | – | – | DLRSNDFSIVSSLPR [GlyRβ_Full_Positional_Scan_215, GlyR β 414-428 variant G424S]
– | – | – | 0.42 | 0.17 | 0.43 | DLRSNDFSIVVSLPR [GlyRβ_Full_Positional_Scan_206, GlyR β 414-428 variant G424V]
– | – | – | 0.48 | 0.2 | 0.41 | DLRSNDFSIVYSLPR [GlyRβ_Full_Positional_Scan_209, GlyR β 414-428 variant G424Y]
– | – | – | 0.62 | 0.27 | 0.68 | DLRSNDFSIWGSLPR [GlyRβ_Full_Positional_Scan_188, GlyR β 414-428 variant V423W]
– | – | – | 0.97 | 0.48 | 0.64 | DLRSNDFSPVGSLPR [GlyRβ_Full_Positional_Scan_165, GlyR β 414-428 variant I422P]
– | – | – | 0.53 | 0.32 | 0.57 | DLRSNDFSQVGSLPR [GlyRβ_Full_Positional_Scan_180, GlyR β 414-428 variant I422Q]
– | – | – | 0.61 | 0.23 | 0.56 | DLRSNDFVIVGSLPR [GlyRβ_Full_Positional_Scan_146, GlyR β 414-428 variant S421V]
– | – | – | 0.55 | 0.37 | 0.49 | DLRSNDGSIVGSLPR [GlyRβ_Full_Positional_Scan_122, GlyR β 414-428 variant F420G]
– | – | – | 0.61 | 0.44 | 0.57 | DLRSNDHSIVGSLPR [GlyRβ_Full_Positional_Scan_133, GlyR β 414-428 variant F420H]
– | – | – | 0.69 | 0.44 | 0.58 | DLRSNDLSIVGSLPR [GlyRβ_Full_Positional_Scan_124, GlyR β 414-428 variant F420L]
– | – | – | 0.51 | 0.32 | 0.43 | DLRSNDMSIVGSLPR [GlyRβ_Full_Positional_Scan_138, GlyR β 414-428 variant F420M]
– | – | – | 0.63 | 0.4 | 0.52 | DLRSNDNSIVGSLPR [GlyRβ_Full_Positional_Scan_139, GlyR β 414-428 variant F420N]
– | – | – | 0.66 | 0.43 | 0.48 | DLRSNDQSIVGSLPR [GlyRβ_Full_Positional_Scan_140, GlyR β 414-428 variant F420Q]
